This is an account of results in patent US20220017512A1 (SHANGHAI ENNOVABIO PHARMACEUTICALS CO., LTD., priority 2018, published 2022).

Holding throughout (format): biochemical
Test [1] deals with T1, recombinant human TRKA (G667C) (Homo sapiens, UniProt P04629, G667C).
T1 construct: purchased SignalChem
Description: In vitro activity test on mutant TRKA (G667C) (HTRF KinEASE TK). Conditions: 5.5 μM ATP, 30 min. As to the method:
(§1) Biological Test Example 2 In Vitro Activity Test on Mutant TRKA (G595R), TRKA (G667C) and TRKC (G623R)
(§2) The recombinant human TRKA (G595R), TRKA (G667C) and TRKC (G623R) proteins were purchased from SignalChem. HTRF kinEASE TK kit was purchased from CisbioBioassays. Synergy Neo 2 of Biotek was used to read the plate.
(§3) The tested compound was subjected to 4-fold serial dilution to reach a final concentration of 1 μM to 0.004 nM (10 concentrates), duplicates for each concentration; and 1% DMSO was present in the detection reaction.
0.026 ng/μL TRKA (G667C) kinase, 1 μM TK Substrate-biotin polypeptide substrate, 5.5 μm ATP, 1× enzymatic buffer, 5 mM MgCl2, and 1 mM DTT. The detection plate was White Proxiplate 384-Plus plate (PerkinElmer), and incubated at room temperature for 30 min, the assay volume was 10 μL.
(§4) 10 μL of detection reagent was added to the plate (containing 0.125 μM SA-XL665 and 5 μL 1×TK-Antibody) and incubated overnight at room temperature, and Synergy Neo 2 was used to read the plate.
(§5) The value of 665/620 Ratio minus the value of negative control wells without enzyme, then the obtained value was converted according to the following formula into inhibition rate (%)=(1−Ratiotest/Ratiomax)×100%. Ratiomax was a positive control without tested compound, and Ratiotest was the value of each concentration of different compounds. IC50 (nM) data was obtained by 4 parameter curve fitting (see Table 1).

Test [2] has as its target T2, Recombinant human TRKB (Homo sapiens, UniProt Q16620).
T2 construct: purchased Carna Biosciences
Description: In vitro activity test on TRKB kinase (HTRF KinEASE TK). Conditions: 4.77 μM ATP, 50 min. Here is the method: (§6) Biological Test Example 1 In Vitro Activity Test on TRKA, TRKB, TRKC Kinase
(§7) Recombinant human TRKA, TRKB, TRKC proteins were purchased from Carna Biosciences. HTRF KinEASE TK kit was purchased from Cisbio Bioassays. Synergy Neo 2 of Biotek was used to read the plate.
(§8) The tested compound was subjected to 3-fold serial dilution to reach a final concentration of 1 μM to 0.05 nM (10 concentrations), duplicates for each concentration; and the DMSO concentration in the detection reaction was 1%.
0.037 ng/μL TRKB protein kinase, 1 μM TK Substrate-biotin polypeptide substrate, 4.77 μM ATP, 1× enzymatic buffer, 5 mM MgCl2, and 1 mM DTT. The detection plate was White Proxiplate 384-Plus plate (PerkinElmer), and incubated at room temperature for 50 min, and the assay volume was 10 μL.
as §4
(§9) The 665/620 Ratio was converted according to the following formula into inhibition rate (%)=(1−Ratiotest/Ratiomax)×100%. Ratiomax was a positive control without tested compound, and Ratiotest was the value of each concentration of different compounds. IC50 (nM) data was obtained by 4 parameter curve fitting (see Table 1).

For test [3], the target named is T3, recombinant human TRKA (G595R) (Homo sapiens, UniProt P04629, G595R).
T3 construct: purchased SignalChem
Nature of the test: In vitro activity test on mutant TRKA (G595R) (HTRF KinEASE TK). Particulars: 4.5 μM ATP, 30 min. Here is the method: as §1, §2, §3
0.12 ng/μL TRKA (G595R) kinase, 1 μM TK Substrate-biotin polypeptide substrate, 4.5 μM ATP, 1× enzymatic buffer, 5 mM MgCl2, and 1 mm DTT. The detection plate was White Proxiplate384-Plus plate (PerkinElmer), and incubated at room temperature for 30 min, and the assay volume was 10 μL.
as §4, §5

The target of test [4] is T4, Recombinant human TRKC (Homo sapiens, UniProt Q16288).
T4 construct: purchased Carna Biosciences
Nature of the test: In vitro activity test on TRKC kinase (HTRF KinEASE TK). Particulars: 25.64 μM ATP, 40 min. Here is the method:
as §6, §7, §8
0.037 ng/μL TRKC protein kinase, 1 μM TK Substrate-biotin polypeptide substrate, 25.64 μM ATP, 1× enzymatic buffer, 5 mM MgCl2, and 1 mM DTT. The detection plate was White Proxiplate 384-Plus plate (PerkinElmer), and incubated at room temperature for 40 min, and the assay volume was 10 μL.
as §4, §9

In test [5] the target is T5, Recombinant human TRKA (Homo sapiens, UniProt P04629).
T5 construct: purchased Carna Biosciences
Description: In vitro activity test on TRKA kinase (HTRF KinEASE TK). Conditions: 14.68 μM ATP, 40 min. As to the method: as §6, §7, §8
0.2 ng/μL TRKA protein kinase, 1 μM TK Substrate-biotin polypeptide substrate, 14.68 μM ATP, 1× enzymatic buffer, 5 mM MgCl2, and 1 mM DTT. The detection plate was White Proxiplate384-Plus plate (PerkinElmer), and incubated at room temperature for 40 min, and the assay volume was 10 μL.
as §4, §9

T3 sequence (P04629 33-796 G595R): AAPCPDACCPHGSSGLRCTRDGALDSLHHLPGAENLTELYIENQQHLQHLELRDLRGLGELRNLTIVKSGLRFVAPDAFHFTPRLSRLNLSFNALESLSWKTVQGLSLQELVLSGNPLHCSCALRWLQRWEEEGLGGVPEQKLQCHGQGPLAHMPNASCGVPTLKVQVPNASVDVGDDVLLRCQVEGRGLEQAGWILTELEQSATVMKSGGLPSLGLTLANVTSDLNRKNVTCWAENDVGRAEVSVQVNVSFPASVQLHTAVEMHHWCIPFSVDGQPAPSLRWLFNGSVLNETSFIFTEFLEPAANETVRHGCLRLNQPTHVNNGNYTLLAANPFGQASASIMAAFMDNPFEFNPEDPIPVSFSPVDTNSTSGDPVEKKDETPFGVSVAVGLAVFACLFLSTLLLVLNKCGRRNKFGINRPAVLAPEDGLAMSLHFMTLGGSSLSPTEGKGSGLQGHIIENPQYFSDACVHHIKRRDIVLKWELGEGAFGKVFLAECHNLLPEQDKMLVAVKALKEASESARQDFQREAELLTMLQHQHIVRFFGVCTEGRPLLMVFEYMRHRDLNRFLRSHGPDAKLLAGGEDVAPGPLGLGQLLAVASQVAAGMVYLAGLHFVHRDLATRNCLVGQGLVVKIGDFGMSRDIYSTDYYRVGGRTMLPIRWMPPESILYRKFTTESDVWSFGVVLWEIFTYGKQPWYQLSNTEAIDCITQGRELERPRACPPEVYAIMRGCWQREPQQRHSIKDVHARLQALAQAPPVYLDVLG
T4 sequence (Q16288 32-839): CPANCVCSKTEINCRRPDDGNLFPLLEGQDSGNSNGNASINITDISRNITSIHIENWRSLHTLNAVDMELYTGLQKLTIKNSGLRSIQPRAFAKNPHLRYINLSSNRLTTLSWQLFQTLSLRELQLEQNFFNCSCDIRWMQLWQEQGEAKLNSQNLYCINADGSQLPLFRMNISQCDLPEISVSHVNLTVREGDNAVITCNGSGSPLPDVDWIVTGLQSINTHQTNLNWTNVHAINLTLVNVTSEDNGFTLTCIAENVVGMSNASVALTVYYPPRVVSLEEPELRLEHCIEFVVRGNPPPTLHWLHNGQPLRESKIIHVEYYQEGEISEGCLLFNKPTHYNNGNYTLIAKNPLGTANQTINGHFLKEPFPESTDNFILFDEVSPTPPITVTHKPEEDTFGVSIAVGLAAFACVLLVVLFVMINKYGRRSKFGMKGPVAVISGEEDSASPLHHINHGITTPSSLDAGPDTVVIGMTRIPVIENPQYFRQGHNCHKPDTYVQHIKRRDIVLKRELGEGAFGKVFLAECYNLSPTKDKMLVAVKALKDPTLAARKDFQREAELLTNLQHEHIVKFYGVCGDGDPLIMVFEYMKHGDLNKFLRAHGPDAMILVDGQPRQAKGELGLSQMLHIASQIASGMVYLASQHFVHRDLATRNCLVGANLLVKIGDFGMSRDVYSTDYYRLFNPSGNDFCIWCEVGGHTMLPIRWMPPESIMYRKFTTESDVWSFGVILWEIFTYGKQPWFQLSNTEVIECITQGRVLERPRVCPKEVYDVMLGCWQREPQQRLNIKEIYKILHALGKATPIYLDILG
T2 sequence (Q16620 32-822): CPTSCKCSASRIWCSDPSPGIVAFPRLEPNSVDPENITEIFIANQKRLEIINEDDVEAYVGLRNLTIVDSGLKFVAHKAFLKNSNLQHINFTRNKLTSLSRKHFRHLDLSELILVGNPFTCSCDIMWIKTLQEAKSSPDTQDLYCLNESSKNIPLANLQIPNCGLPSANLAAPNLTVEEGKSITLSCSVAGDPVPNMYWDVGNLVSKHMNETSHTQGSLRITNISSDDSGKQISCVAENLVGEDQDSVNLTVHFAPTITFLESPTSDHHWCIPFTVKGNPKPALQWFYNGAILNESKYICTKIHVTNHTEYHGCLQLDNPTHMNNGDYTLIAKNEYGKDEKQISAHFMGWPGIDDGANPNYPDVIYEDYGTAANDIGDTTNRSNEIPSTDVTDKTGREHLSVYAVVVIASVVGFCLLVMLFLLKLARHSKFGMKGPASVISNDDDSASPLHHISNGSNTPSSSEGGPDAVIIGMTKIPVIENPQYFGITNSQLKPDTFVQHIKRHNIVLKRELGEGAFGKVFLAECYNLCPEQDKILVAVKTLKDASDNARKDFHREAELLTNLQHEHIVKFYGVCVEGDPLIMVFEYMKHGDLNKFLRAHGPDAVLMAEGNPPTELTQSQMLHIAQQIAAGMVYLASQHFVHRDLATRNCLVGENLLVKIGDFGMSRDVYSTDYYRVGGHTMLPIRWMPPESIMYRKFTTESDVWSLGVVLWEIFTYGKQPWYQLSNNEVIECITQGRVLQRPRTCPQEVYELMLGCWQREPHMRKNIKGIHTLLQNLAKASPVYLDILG
T1 sequence (P04629 33-796 G667C): as the sequence (P04629 33-796 G595R) above, with R563G, G635C counted along it
T5 sequence (P04629 33-796): as the sequence (P04629 33-796 G595R) above, with R563G counted along it

In the case of `CC(C)N1CCC(n2cc(-c3ccnc4ccc(N5C[C@@H](F)C[C@@H]5c5cc(F)ccc5F)nc34)cn2)CC1` [Example 14], the IC50 was below 50 nM in test [1]; below 10 nM in test [2]; below 1 nM in test [3]; below 1 nM in test [4]; below 1 nM in test [5].

Consider `Fc1ccc(F)c([C@H]2CCCN2c2ccc3nccc(-c4cnn(C5CCNCC5)c4F)c3n2)c1` [Example 15, (R)-2-(2-(2,5-Difluorophenyl)pyrrolidin-1-yl)-8-(5-fluoro-1-(piperidin-4-yl)-1H-pyrazole-4-yl)-1,5-naphthyridine], for which the IC50 in test [1] was below 10 nM; in test [2] it was below 1 nM; in test [3], below 1 nM; in test [4] it was below 1 nM; in test [5], below 1 nM.

On to `CC1(C)CC(n2cc(-c3ccnc4ccc(N5CCC[C@@H]5c5cc(F)ccc5F)nc34)cn2)CCN1` (stereo partly drawn) [Example 17, 2-((R)-2-(2,5-difluorophenyl)pyrrolidin-1-yl)-8-(1-(2,2-dimethylpiperidin-4-yl)-1H-pyrazol-4-yl)-1,5-naphthyridine], for which the concentration for half-maximal inhibition (IC50) in test [1] is below 50 nM; in test [2], below 10 nM; in test [3], below 10 nM; in test [4], below 10 nM; in test [5] it was below 1 nM.

In the case of `CC1(C)CC(n2cc(-c3ccnc4ccc(N5C[C@@H](F)C[C@@H]5c5cc(F)ccc5F)nc34)cn2)CCN1` (stereo partly drawn) [Example 18, 2-((2R,4S)-2-(2,5-difluorophenyl)-4-fluoropyrrolidin-1-yl)-8-(1-(2,2-dimethylpiperidin-4-yl)-1H-pyrazol-4-yl)-1,5-naphthyridine], the IC50 is below 10 nM in test [1]; below 1 nM in test [2]; below 10 nM in test [3]; below 1 nM in test [4]; below 1 nM in test [5].

Take `Fc1ccc(F)c([C@H]2CCCN2c2ccc3ncc(F)c(-c4cnn(C5CCNCC5)c4)c3n2)c1` [Example 21]: the IC50 was below 10 nM in test [1]; below 1 nM in test [2]; below 1 nM in test [3]; below 1 nM in test [4]; below 1 nM in test [5].

For the compound `Fc1ccc(F)c([C@H]2C[C@H](F)CN2c2ccc3ncc(Cl)c(-c4cnn(C5CNC5)c4)c3n2)c1` [Example 22, 8-(1-(azetidine-3-yl)-1H-pyrazol-4-yl)-7-chloro-2-((2R,4S)-2-(2,5-difluorophenyl)-4-fluoropyrrolidin-1-yl)-1,5-naphthyridine], the IC50 in test [1], in test [2], in test [3], in test [4] and in test [5] was below 1 nM each time.

With `CN1CC(n2cc(-c3c(Cl)cnc4ccc(N5C[C@@H](F)C[C@@H]5c5cc(F)ccc5F)nc34)cn2)C1` [Example 23], the IC50 is below 1 nM in test [1]; below 1 nM in test [2]; below 1 nM in test [3]; below 10 nM in test [4]; below 1 nM in test [5].

For `Fc1ccc(F)c([C@H]2CCCN2c2ccc3ncc(Cl)c(-c4cnn(C5CCNCC5)c4)c3n2)c1` [Example 24, (R)-7-chloro-2-(2-(2,5-difluorophenyl)pyrrolidin-1-yl)-8-(1-(piperidin-4-yl)-1H-pyrazol-4-yl)-1,5-naphthyridine], the IC50 was below 10 nM in test [1]; below 1 nM in test [2]; below 1 nM in test [3]; below 10 nM in test [4]; below 1 nM in test [5].

Consider `CS(=O)(=O)n1cc(-c2c(Cl)cnc3ccc(N4C[C@@H](F)C[C@@H]4c4cc(F)ccc4F)nc23)cn1` [Example 25, 7-chloro-2-((2R,4S)-2-(2,5-difluorophenyl)-4-fluoropyrrolidin-1-yl)-8-(1-(methylsulfonyl)-1H-pyrazol-4-yl)-1,5-naphthyridine], for which the IC50 in test [1] is below 10 nM; in test [2], below 1 nM; in test [3], below 1 nM; in test [4], below 1 nM; in test [5], below 10 nM.

Regarding `O=C(Nc1ccnc2ccc(N3C[C@@H](F)C[C@@H]3c3cc(F)ccc3F)nc12)N1CC[C@H](O)C1` [Example 26, (S)—N-(6-((2R,4S)-2-(2,5-difluorophenyl)-4-fluoropyrrolidin-1-yl)-1,5-naphthyridin-4-yl)-3-hydroxypyrrolidin-1-carboxamide], the IC50 in test [1], in test [2], in test [3], in test [4] and in test [5] was below 1 nM each time.

As for `O=C(Nc1ccnc2ccc(N3CCC[C@@H]3c3cc(F)ccc3F)nc12)N1CC[C@H](O)C1` [Example 27, (S)—N-(6-((R)-2-(2,5-difluorophenyl)pyrrolidin-1-yl)-1,5-naphthyridin-4-yl)-3-hydroxypyrrolidin-1-carboxamide], the IC50 in test [1] is below 50 nM; in test [2] it was below 1 nM; in test [3], below 1 nM; in test [4], below 1 nM; in test [5], below 1 nM.

Regarding `Fc1ccc(F)c([C@H]2CCCN2c2ccc3ncc(F)c(-c4cnn(C5CNC5)c4)c3n2)c1` [Example 28, (R)-8-(1-(azetidin-3-yl)-1H-pyrazol-4-yl)-2-(2-(2,5-difluorophenyl)pyrrolidin-1-yl)-7-fluoro-1,5-naphthyridine], the IC50 in test [1], in test [2], in test [3], in test [4] and in test [5] was below 10 nM each time.

For the compound `Fc1ccc(F)c([C@H]2C[C@H](F)CN2c2ccc3ncc(F)c(-c4cnn(C5CNC5)c4)c3n2)c1` [Example 29, 8-(1-(azetidin-3-yl)-1H-pyrazol-4-yl)-2-((2R,4S)-2-(2,5-difluorophenyl)-4-fluoropyrrolidin-1-yl)-7-fluoro-1,5-naphthyridine], the half-maximal inhibitory concentration (IC50) in test [1], in test [2], in test [3], in test [4] and in test [5] was below 1 nM each time.

For the compound `COc1ncc(F)cc1[C@H]1CCCN1c1ccc2ncc(Cl)c(-c3cnn(C4CCNCC4)c3)c2n1` [Example 30, (R)-7-chloro-2-(2-(5-fluoro-2-methoxypyridin-3-yl)pyrrolidin-1-yl)-8-(1-(piperidin-4-yl)-1H-pyrazol-4-yl)-1,5-naphthyridine], the half-inhibitory concentration (IC50) in test [1] is below 10 nM; in test [2], below 10 nM; in test [3], below 1 nM; in test [4] it was below 10 nM; in test [5], below 1 nM.

Turning to `CN(C)S(=O)(=O)n1cc(-c2c(Cl)cnc3ccc(N4C[C@@H](F)C[C@@H]4c4cc(F)ccc4F)nc23)cn1` [Example 31], the IC50 was below 100 nM in test [1]; below 10 nM in test [2]; below 10 nM in test [3]; below 10 nM in test [4]; below 1 nM in test [5].

Turning to `OCCN1CCC(n2cc(-c3c(Cl)cnc4ccc(N5C[C@@H](F)C[C@@H]5c5cc(F)ccc5F)nc34)cn2)CC1` [Example 32, 2-(4-(4-(3-chloro-6-((2R,4S)-2-(2,5-difluorophenyl)-4-fluoropyrrolidin-1-yl)-1,5-naphthyridin-4-yl)-1H-pyrazol-1-yl)piperidin-1-yl)ethan-1-ol], the IC50 in test [1], in test [2], in test [3], in test [4] and in test [5] was below 1 nM each time.
